# US10441599B2, “Pharmaceutical composition containing Ginkgolide B and blood platelet prostaglandin cyclooxygenase inhibitor and method for preparation thereof and use thereof” (priority 2014, dated 2019)
# Tests used:
# Assay type in all cases: in vivo, Japanese large-ear white rabbits
# [1] = test system: rabbit platelet aggregation induced by PAF; test: Platelet aggregation rate induced by PAF in platelet-rich plasma of dosed rabbits; conditions: for Platelet aggregation inhibition rate (%) / platelet aggregation rate, 1 min / platelet aggregation rate, 5 min / maximum platelet aggregation rate (MAX): rabbits 5.0 mg/kg once daily 7 days; for Platelet aggregation inhibition rate (%) / maximum platelet aggregation rate (MAX): PAF-induced; for Platelet aggregation inhibition rate (%): relative to saline group; for platelet aggregation rate, 1 min / platelet aggregation rate, 5 min / maximum platelet aggregation rate (MAX): PRP, x ± s, n = 8; for platelet aggregation rate, 1 min: 1 min after addition of 10 μL PAF; for platelet aggregation rate, 5 min: 5 min after addition of 10 μL PAF; for maximum platelet aggregation rate comparing with the saline group: under the induction of PAF, p<0.01, p<<0.05
# Method: 128 Japanese large-ear white rabbits with a weight of (2.0±0.2) kg, half male and half female, were provided by Chongqing Medical University Experimental Animal Center [animal certification number: XCXK (Yu) 20020001].
# Platelet activation factors (PAF) (cayman, lot number: 011219) was dissolved in the Tris-NaCl solution containing 0.25% of calf serum albumin at a pH of 7.6, to a final concentration of 3.6 nmoL/L; sodium citrate (Beijing Zhongshanjinqiao Biotechnology Company, lot number: 20130117) dissolved in the distilled water with 3.8% concentration; rabbit β-thromboglobulin (β-TG) ELISA kit (FOCUS, lot number: 20130224), rabbit platelet factor 4 (PF-4) (lot number: ELISA kit (FOCUS, lot number: 20130301). TYXN-96 multifunctional intelligent aggregometer (Shanghai General Technique Research Institute); Scanning electron microscope S-3000 N (Hitachi Limited); ELX-800 Absorbance Reader (BioTek Instruments, Inc.).
# 128 Japanese large-ear white rabbits were randomly assigned to 16 groups, with 8 rabbits in each group: (1) Saline group, (2) Ginkgolide B group, (3) Aspirin group, (4) Jinnaduo group, (5) Composition 1 group, (6) Composition 2 group, (7) Composition 3 group, (8) Composition 4 group, (9) Composition 5 group, (10) Composition 6 group, (11) Composition 7 group, (12) Composition 8 group, (13) Composition 9 group, (14) Composition 10 group, (15) Composition 11 group, (16) Composition 12 group. All groups were administered with a clinically used route and dosage for 7 days continuously.
# After 7 days of administration, 10.5 ml of blood was taken from the heart of each animal, wherein 1.5 ml of plasma was used for taking serum and the rest 9 ml of plasma was subjected to 3.8% sodium citrate at 1:9 for anticoagulation, centrifuging for 10 minutes at 800 r/min, and taking the supernatant to obtain platelet-rich plasma (PRP).), wherein 100 μl of the PRP was taken for electron microscope examination, and the rest of the PRP was used for detecting of the platelet aggregation rate; the remaining portion was centrifuged for 15 min at a speed of 3000 r/min, and platelet-depleted plasma (PPP) was obtained. PPP was used to adjust the number of platelet in PRP, to be at 360×10^9/L. The platelet aggregation rate and maximum platelet aggregation rate was studied and recorded after 1 min, 5 min of addition of 10 μL of PAF.
# The statistical analysis is carried out using SPSS 18.0 software, and the platelet aggregation rates, the percentage of types of platelet morphology and the concentration of PF-4 and β-TG were analyzed using two-sample t-test. P-values<0.05 were considered statistically significant.
# [2] = test system: platelets (morphology types after PAF); test: Scanning electron microscopy study of platelet morphology after addition of PAF; conditions: for Types of morphology (%): Aggregated / Types of morphology (%): Circle / Types of morphology (%): Flat / Types of morphology (%): Tree like: rabbits 5.0 mg/kg once daily 7 days, PRP + PAF, SEM, 100 platelets, x ± s, n = 8; for Aggregated type platelets under scanning electron microscope: under induction of PAF, 2000-fold SEM
# Method: 128 Japanese large-ear white rabbits with a weight of (2.0±0.2) kg, half male and half female, were provided by Chongqing Medical University Experimental Animal Center [animal certification number: XCXK (Yu) 20020001]. 128 Japanese large-ear white rabbits were randomly assigned to 16 groups, with 8 rabbits in each group: […] All groups were administered with a clinically used route and dosage for 7 days continuously. […] The types of platelet under the electron microscope includes: […] (3) Flat type has a dense core in the center and a wide transparent peripheral zone which has a smooth periphery or small bulges. (4) Aggregated-type is usually composed of several to dozens of platelets, with different sizes of the aggregates, wherein the platelets are mutually connected, some of the platelets are integrally fused into a whole, and the foot processes of the peripheral part are prominent.
# [3] = test system: rabbit platelet factor 4 (PF-4); test: Determination of PF-4 level in serum (ELISA) after PAF induction; conditions: for PF-4 level: rabbits 5.0 mg/kg once daily 7 days, serum after PAF induction, x ± s, n = 8
# From the text: (§1) 128 Japanese large-ear white rabbits with a weight of (2.0±0.2) kg, half male and half female, were provided by Chongqing Medical University Experimental Animal Center [animal certification number: XCXK (Yu) 20020001]. […] ELISA kit (FOCUS, lot number: 20130301). TYXN-96 multifunctional intelligent aggregometer (Shanghai General Technique Research Institute); Scanning electron microscope […]-800 Absorbance Reader (BioTek Instruments, Inc.). 128 Japanese large-ear white rabbits were randomly assigned to 16 groups, with 8 rabbits in each group: […] All groups were administered with a clinically used route and dosage for 7 days continuously. […] The plasma was rested at 4° C. for 4 hours, and 200 μL of serum was taken for detection. The specific operation is carried out according to the kit specification, and the result was read by the Absorbance Reader.
# [4] = test system: rabbit β-thromboglobulin (β-TG); test: Determination of β-TG level in serum (ELISA) after PAF induction; conditions: for level of β-TG compared with the saline group: p<0.01, p<0.05; for β-TG level: rabbits 5.0 mg/kg once daily 7 days, serum after PAF induction, x ± s, n = 8
# From the text: as §1
Structure (SMILES),Platelet aggregation inhibition rate (%) [1] [%],"platelet aggregation rate, 1 min [1]","platelet aggregation rate, 5 min [1]",maximum platelet aggregation rate (MAX) [1],maximum platelet aggregation rate comparing with the saline group [1],Types of morphology (%): Aggregated [2] [%],Types of morphology (%): Circle [2] [%],Types of morphology (%): Flat [2] [%],Types of morphology (%): Tree like [2] [%],Aggregated type platelets under scanning electron microscope [2],PF-4 level [3] [µg/mL],level of β-TG compared with the saline group [4],β-TG level [4] [µg/mL],"level of PF-4 compared with the saline group ([3]; p<0.01, p<0.05)"
"CC(=O)Oc1ccccc1C(=O)O [Aspirin, acetylsalicylic acid]",31.53,25.28 ± 5.06,36.89 ± 5.53,48.08 ± 5.87,significant difference,54.0 ± 14.3,5.8 ± 2.6,25.5 ± 8.4,14.7 ± 7.0,increased number of Aggregated type platelets,1.489 ± 0.228,didn't decrease significantly,1.504 ± 0.244,
CC1C(=O)OC2C(O)C34C5CC(C(C)(C)C)C36C(OC(=O)C6O)OC4(C(=O)O5)C12O (stereo not drawn) [Ginkgolide B],44.66,21.36 ± 4.15,33.54 ± 5.48,38.86 ± 4.74,significant difference,22.3 ± 9.6,31.6 ± 6.4,46.1 ± 8.3,15.8 ± 6.8,rarely seen,1.264 ± 0.215,decreased significantly,1.247 ± 0.184,decreased significantly
